Experiments:
p38 MAPKα = p38 MAPKα (Homo sapiens (Human), UniProt Q16539); assay: p38 MAPKα enzyme inhibition (Method 2), Z-LYTE FRET; assay type: biochemical
Description: (§1) The enzyme inhibitory activities of compounds disclosed herein are determined by FRET using synthetic peptides labelled with both donor and acceptor fluorophores (Z-LYTE, Invitrogen Ltd., Paisley, UK).
The inhibitory activities of test compounds against the p38 MAPKα isoform (MAPK14: Invitrogen), are evaluated indirectly by determining the level of activation/phosphorylation of the down-stream molecule, MAPKAP-K2. The p38 MAPKα protein (80 ng/mL, 2.5 μL) is mixed with the test compound (2.5 μL of either 4 μg/mL, 0.4 μg/mL, 0.04 μg/mL or 0.004 μg/mL) for 2 hr at RT. […] The mixture is incubated for 1 hr at RT. Development reagent (protease, […]) is added for 1 hr prior to detection in a fluorescence microplate reader (Varioskan® Flash, ThermoFisher Scientific).
This method follows the same steps as Method 1 above, but utilises a higher concentration of the p38 MAPKα protein (2.5 μL of 200 ng/mL protein instead of 2.5 μL of 80 ng/mL protein) for mixing with the test compound.
(§2) In all cases, the site-specific protease cleaves non-phosphorylated peptide only and eliminates the FRET signal. Phosphorylation levels of each reaction are calculated using the ratio of coumarin emission (donor) over fluorescein emission (acceptor), for which high ratios indicate high phosphorylation and low ratios indicate low phosphorylation levels. The percentage inhibition of each reaction is calculated relative to non-inhibited control and the 50% inhibitory concentration (IC50 value) is then calculated from the concentration-response curve.

GSK3α = GSK3α (Homo sapiens (Human), UniProt P49840); assay: GSK 3α enzyme inhibition (Method 2), Z-LYTE FRET; assay type: biochemical
Description: as §1
The inhibitory activities of compounds of the invention against the GSK 3α enzyme isoform (Invitrogen), are evaluated by determining the level of activation/phosphorylation of the target peptide. The GSK3-α protein (500 ng/mL, 2.5 μL) is mixed with the test compound (2.5 μL at either 4 μg/mL, 0.4 μg/mL, 0.04 μg/mL, or 0.004 μg/mL) for 2 hr at RT. The FRET peptide (8 μM, 2.5 μL), which is a phosphorylation target for GSK3α, and ATP (40 μM, 2.5 μL) are then added to the enzyme/compound mixture and the resulting mixture incubated for 1 hr. Development reagent (protease, 5 μL) is added for 1 hr prior to detection in a fluorescence microplate reader (Varioskan® Flash, ThermoFisher Scientific).
as §2
This method follows the same steps as Method 1 above, but utilises a shorter period of mixing of the test compound (105 minutes instead of 2 hours) with the GSK3-α protein.

Chain of p38 MAPKα (Q16539 whole entry): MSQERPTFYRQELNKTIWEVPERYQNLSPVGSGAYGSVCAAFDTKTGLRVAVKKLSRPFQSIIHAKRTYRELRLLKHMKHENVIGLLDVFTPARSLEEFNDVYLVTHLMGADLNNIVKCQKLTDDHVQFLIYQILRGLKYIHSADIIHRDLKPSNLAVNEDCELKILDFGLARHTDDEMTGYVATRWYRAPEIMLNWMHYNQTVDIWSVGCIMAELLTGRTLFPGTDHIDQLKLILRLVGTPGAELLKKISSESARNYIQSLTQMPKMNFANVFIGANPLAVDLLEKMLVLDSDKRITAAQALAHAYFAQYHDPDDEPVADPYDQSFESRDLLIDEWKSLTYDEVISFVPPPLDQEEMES
Chain of GSK3α (P49840 whole entry): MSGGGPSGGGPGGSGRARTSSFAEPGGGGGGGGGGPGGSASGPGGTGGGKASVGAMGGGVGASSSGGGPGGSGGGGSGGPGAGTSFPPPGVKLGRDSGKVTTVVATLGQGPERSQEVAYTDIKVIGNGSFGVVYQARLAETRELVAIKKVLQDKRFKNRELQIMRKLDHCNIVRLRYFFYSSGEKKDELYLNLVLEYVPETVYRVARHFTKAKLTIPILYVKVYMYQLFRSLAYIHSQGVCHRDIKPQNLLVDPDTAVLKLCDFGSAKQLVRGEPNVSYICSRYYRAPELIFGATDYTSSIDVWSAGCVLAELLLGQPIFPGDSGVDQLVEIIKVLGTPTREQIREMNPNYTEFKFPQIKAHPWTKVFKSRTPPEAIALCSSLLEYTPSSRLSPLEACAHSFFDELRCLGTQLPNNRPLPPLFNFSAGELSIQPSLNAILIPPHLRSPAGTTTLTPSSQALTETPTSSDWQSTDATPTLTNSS

SMILES	IC50 (p38 MAPKα)	IC50 (GSK3α)
C#CC(C)(C)c1cc(NC(=O)Nc2ccc(Oc3ccnc(Nc4cc(C)c5[nH]ncc5c4)n3)c3ccccc23)n(-c2ccc(C)cc2)n1 [Example 2, 1-(4-((2-((7-Methyl-1H-indazol-5-yl)amino)pyrimidin-4-yl)oxy)naphthalen-1-yl)-3-(3-(2-methylbut-3-yn-2-yl)-1-(p-tolyl)-1H-pyrazol-5-yl)urea]	380 nM	> 10000 nM
C#CC(C)(C)c1cc(NC(=O)Nc2ccc(Oc3ccnc(Nc4cc(OC)cc(OCCOCCOCCOC)c4)n3)c3ccccc23)n(-c2ccc(C)cc2)n1 [Example 13, 1-(4-((2-((3-Methoxy-5-(2-(2-(2-methoxyethoxy)ethoxy)ethoxy)phenyl)amino)pyrimidin-4-yl)oxy)naphthalen-1-yl)-3-(3-(2-methylbut-3-yn-2-yl)-1-(p-tolyl)-1H-pyrazol-5-yl)urea]	152 nM	6400 nM

Reference: US9790209B2, “Kinase inhibitors” (Respivert Limited, priority 2012, dated 2017)
